Experimental data from publication PMC8750650 (bioRxiv, 2022).

Key:
CSNK2A2 = CSNK2A2 (Homo sapiens, UniProt P19784); assay: cell-based
CSNK2A1 = CSNK2A1 (Homo sapiens, UniProt P68400); assay: cell-based; format: cell-based
MHV-nLuc = assay: microbe, parasite or virus in culture; format: cell-based, mouse hepatitis virus (MHV); details: Murine coronavirus, 10 h, read-out: MHV replication (pIC50) (converted)
[1] = test system: SARS-CoV-2 spike protein uptake; format: cell-based, human
A549-ACE2 cells = details: ref [18]; cited from earlier work
SARS-CoV-2 [2] = details: human lung epithelial A549-ACE2 cells; ref [18]; cited from earlier work
SARS-CoV-2 [3] = details: African green monkey kidney epithelial Vero cells infected with SARS-CoV-2; ref [18]; cited from earlier work
DBT cells = details: LDH assay, 10 h, concentrations up to 10 μM
Vero cells = details: ref [18]; cited from earlier work

Chain of CSNK2A2 (P19784 whole entry): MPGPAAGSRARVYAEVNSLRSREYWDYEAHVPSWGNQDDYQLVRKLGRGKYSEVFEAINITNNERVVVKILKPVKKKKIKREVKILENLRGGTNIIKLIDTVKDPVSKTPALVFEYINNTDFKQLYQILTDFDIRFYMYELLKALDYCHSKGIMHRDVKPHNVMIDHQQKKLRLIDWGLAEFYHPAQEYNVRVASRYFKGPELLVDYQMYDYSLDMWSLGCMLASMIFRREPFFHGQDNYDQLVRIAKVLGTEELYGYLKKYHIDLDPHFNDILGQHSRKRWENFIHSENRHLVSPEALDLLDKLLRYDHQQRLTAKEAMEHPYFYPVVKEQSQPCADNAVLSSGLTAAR
Chain of CSNK2A1 (P68400 whole entry): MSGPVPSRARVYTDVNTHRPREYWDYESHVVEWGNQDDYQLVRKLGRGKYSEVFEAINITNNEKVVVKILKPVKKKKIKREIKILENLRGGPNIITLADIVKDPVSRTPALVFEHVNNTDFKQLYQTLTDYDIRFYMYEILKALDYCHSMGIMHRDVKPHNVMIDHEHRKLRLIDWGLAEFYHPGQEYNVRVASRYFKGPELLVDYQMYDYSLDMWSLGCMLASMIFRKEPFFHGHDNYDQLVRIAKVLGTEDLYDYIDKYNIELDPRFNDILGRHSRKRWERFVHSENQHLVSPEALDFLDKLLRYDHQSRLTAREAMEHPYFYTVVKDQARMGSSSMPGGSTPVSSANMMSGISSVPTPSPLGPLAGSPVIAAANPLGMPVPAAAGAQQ

Work on CC(=O)Nc1ccc2ccn(-c3cc(N[C@H](C)C#N)n4ncc(C#N)c4n3)c2c1 [Compound 30] yielded an IC50 (CSNK2A2) of 79.4 nM and an IC50 (CSNK2A1) of 126 nM.
With CCC(=O)Nc1cc(Nc2cc(NC3CC3)n3ncc(C#N)c3n2)ccc1N1CCNCC1 [Compound 14] the IC50 (CSNK2A1) was 158 nM.
Molecule CCC(=O)Nc1cc(Nc2cc(NC3CC3)n3ncc(C#N)c3n2)ccc1N(C)CCN [Compound 9] has an IC50 (CSNK2A1) of 3.98 nM.
With CCC(=O)Nc1cc(Nc2cc(NC3CC3)n3ncc(C#N)c3n2)ccc1C [SGC-CK2–1] the IC50 (MHV-nLuc) was 126 nM and the “decrease in spike protein uptake” value [1] was 70–80%.
Work on CC(=O)Nc1ccc2ccn(-c3cc(NCc4cnn(C)c4)n4ncc(C#N)c4n3)c2c1 [Compound 29] yielded an IC50 (CSNK2A2) of 200 nM and an IC50 (CSNK2A1) of 158 nM.
Work on CC(=O)Nc1ccc2ccn(-c3cc(NC4CCN(C(C)=O)CC4)n4ncc(C#N)c4n3)c2c1 [Compound 28] yielded an IC50 (CSNK2A2) of 398 nM and an IC50 (CSNK2A1) of 63.1 nM.
In the case of CC(=O)Nc1ccc2ccn(-c3cc(NCC4CCOC4)n4ncc(C#N)c4n3)c2c1 (stereo not drawn) [Compound 25], the IC50 (CSNK2A2) is reported as 251 nM and the IC50 (CSNK2A1) is reported as 31.6 nM.
For CCC(=O)Nc1cc(Nc2cc(NC3CC3)n3ncc(C#N)c3n2)ccc1N1CCCC(NC)C1 (stereo not drawn) [Compound 15], the IC50 (CSNK2A2) was 15.8 nM, the IC50 (CSNK2A1) was 2 nM and the “selectivity for CSNK2A1 over CSNK2A2” value (CSNK2A1; from nanoBRET values) was 6–8 fold.
CC(=O)Nc1ccc2ccn(-c3cc(NC4CC(F)(F)C4)n4ncc(C#N)c4n3)c2c1 [Compound 18] gave an IC50 (CSNK2A2) of 100 nM and an IC50 (CSNK2A1) of 39.8 nM.
CC(=O)Nc1ccc2ccn(-c3cc(NC4(C)CC4)n4ncc(C#N)c4n3)c2c1 [Compound 20] gave an IC50 (CSNK2A2) of 1580 nM and an IC50 (CSNK2A1) of 501 nM.
CC(=O)Nc1ccc2ccn(-c3cc(Sc4ccccc4)n4ncc(C#N)c4n3)c2c1 [Compound 33] showed an IC50 (CSNK2A2) of 6310 nM and an IC50 (CSNK2A1) of 6310 nM.
With CC(=O)Nc1ccc2ccn(-c3cc(NCC4CCOCC4)n4ncc(C#N)c4n3)c2c1 [Compound 26] the IC50 (CSNK2A2) was 2000 nM and the IC50 (CSNK2A1) was 100 nM.
With CC(=O)Nc1ccc2ccn(-c3cc(NC45CC(C4)C5)n4ncc(C#N)c4n3)c2c1 [Compound 19] the IC50 (CSNK2A2) was 79.4 nM and the IC50 (CSNK2A1) was 158 nM.
For O=C(O)c1ccc2c(c1)nc(Nc1cccc(Cl)c1)c1ccncc12 [silmitasertib], the cell toxicity (A549-ACE2 cells) is listed as “cell toxicity at micromolar doses”, the “inhibition of SARS-CoV-2 infection (pIC50)” value (SARS-CoV-2 [2]) is listed as under 5 and the “antiviral activity, SARS-CoV-2 (pIC50)” value (SARS-CoV-2 [3]) is listed as 5.6. For the same molecule, the “effect on cell viability” value (DBT cells) was “no effect on cell viability” and the cell toxicity (Vero cells) was “cell toxicity at micromolar doses”.
CCC(=O)Nc1cc(Nc2cc(NC3CC3)n3ncc(C#N)c3n2)ccc1N(C)CCN1CCCCC1 [Compound 12] showed an IC50 (CSNK2A1) of 251 nM.
CCC(=O)Nc1cc(Nc2cc(NC3CC3)n3ncc(C#N)c3n2)ccc1N(C)CCN1CCCC1 [Compound 11] showed an IC50 (CSNK2A2) of 100 nM and an IC50 (CSNK2A1) of 100 nM.
